Assay results taken from ChEMBL document CHEMBL3091348, “Discovery of an intravenous hepatoselective glucokinase activator for the treatment of inpatient hyperglycemia” (Bioorg Med Chem Lett, 2013).
pEC50, pIC50: −log10 of the molar value. Converted amounts (≈) assume the structure as drawn.

Columns and labels:
[1] = Aqueous solubility of the compound at pH 8.5; format: physicochemical
[2] = Organic anion transporter-mediated drug uptake in rat hepatocytes assessed as active uptake; format: ADME, cell-based, Hepatocyte
[3] = Organic anion transporter-mediated drug uptake in rat hepatocytes assessed as total uptake; format: ADME, cell-based, Hepatocyte
[4] = Organic anion transporter-mediated drug uptake in rat hepatocytes assessed as passive uptake; format: ADME, cell-based, Hepatocyte
[5] = Lipophilicity, log D of the compound at pH 7.4; format: physicochemical; settings: buffer
[6] = target: T1, Hexokinase-4 (Homo sapiens, UniProt P35557); test: Activation of recombinant human glucokinase by G6PDH/NADP coupled assay
T1 sequence (P35557 whole entry): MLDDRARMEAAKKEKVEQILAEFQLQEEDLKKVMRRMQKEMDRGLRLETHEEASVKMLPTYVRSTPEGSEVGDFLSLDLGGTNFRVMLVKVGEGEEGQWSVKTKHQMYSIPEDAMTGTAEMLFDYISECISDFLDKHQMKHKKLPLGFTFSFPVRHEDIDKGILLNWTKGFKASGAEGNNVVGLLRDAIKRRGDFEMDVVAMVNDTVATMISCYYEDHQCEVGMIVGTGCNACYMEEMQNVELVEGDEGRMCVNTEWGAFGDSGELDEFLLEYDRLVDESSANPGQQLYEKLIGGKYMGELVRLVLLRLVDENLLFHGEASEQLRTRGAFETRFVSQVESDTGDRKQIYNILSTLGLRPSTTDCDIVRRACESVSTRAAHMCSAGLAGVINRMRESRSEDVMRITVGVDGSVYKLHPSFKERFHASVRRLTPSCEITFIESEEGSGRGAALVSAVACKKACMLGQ

[7] = Apparent permeability across RRCK cells; format: ADME, cell-based, Canis lupus familiaris, MDCKII-LE; settings: dog, MDCK
[8] = Aqueous kinetic solubility of the compound at pH 6.5; format: physicochemical; settings: read-out: Kinetic_solubility
[9] = target: T2, Hexokinase-4 (Homo sapiens) (UniProt P35557); test: Activation of recombinant human glucokinase assessed as decrease in enzyme Km for glucose by G6PDH/NADP coupled assay relative to control
T2 sequence (whole entry): T1 sequence (P35557 whole entry)

[10] = target: T2, Hexokinase-4 (Homo sapiens); test: Activation of recombinant human glucokinase assessed as increase in enzyme Vmax for glucose by G6PDH/NADP coupled assay relative to control
[11] = system: Rattus norvegicus; test: Antidiabetic activity in Goto-Kakizaki rat diabetic model assessed as reduction in glucose excursion AUC at 100 mg/kg, po measured after 1 hr by oral glucose tolerance test relative to control; parameters: scale not given: the % may be the effect or the level left
[12] = Apparent permeability in RRCK cells at pH 7.4; format: ADME, cell-based, Canis lupus familiaris, MDCKII-LE; settings: dog, MDCK
[13] = system: Rattus norvegicus; test: Antidiabetic activity in Goto-Kakizaki rat diabetic model assessed as reduction in glucose excursion AUC at 24 mg/kg, iv administered as infusion for 4 hrs measured after 2 hrs by oral glucose tolerance test relative to control; format: functional; parameters: scale not given: the % may be the effect or the level left
[14] = system: Rattus norvegicus; test: Antihyperglycemic activity in rat assessed as liver to plasma AUC ratio at EC50 dose, iv administered as infusion up to 4 days; format: functional
[15] = target: T3, OATP1B1 (Homo sapiens, UniProt Q9Y6L6); test: Activity at OATP1B1 (unknown origin) transfected in HEK cells assessed as transporter-mediated cellular uptake relative to mock-transfected HEK cells; format: ADME, cell-based; settings: HEK293 cells transfected with OATP1B1, read-out: FC
T3 sequence (Q9Y6L6 whole entry): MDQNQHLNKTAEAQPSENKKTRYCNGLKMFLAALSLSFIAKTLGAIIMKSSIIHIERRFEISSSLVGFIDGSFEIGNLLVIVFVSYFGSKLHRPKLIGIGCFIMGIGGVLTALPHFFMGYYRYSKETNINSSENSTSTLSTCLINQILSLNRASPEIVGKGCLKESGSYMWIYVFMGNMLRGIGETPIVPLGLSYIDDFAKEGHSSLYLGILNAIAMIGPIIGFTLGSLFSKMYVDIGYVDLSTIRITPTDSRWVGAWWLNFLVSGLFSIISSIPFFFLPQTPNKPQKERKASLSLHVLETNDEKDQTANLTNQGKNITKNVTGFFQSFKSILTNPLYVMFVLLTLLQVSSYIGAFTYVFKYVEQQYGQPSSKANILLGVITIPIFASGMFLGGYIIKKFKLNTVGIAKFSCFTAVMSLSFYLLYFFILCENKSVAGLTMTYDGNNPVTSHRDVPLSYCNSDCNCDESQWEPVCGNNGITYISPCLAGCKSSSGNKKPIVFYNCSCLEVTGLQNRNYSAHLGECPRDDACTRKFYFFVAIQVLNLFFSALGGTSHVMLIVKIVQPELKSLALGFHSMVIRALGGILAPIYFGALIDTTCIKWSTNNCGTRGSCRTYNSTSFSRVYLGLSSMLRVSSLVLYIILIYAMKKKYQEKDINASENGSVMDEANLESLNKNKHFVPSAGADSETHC

[16] = Half life in dog at 1 mg/kg, iv; format: ADME, organism-based, Canis lupus familiaris; parameters: dose 1 mg/kg, route intravenous; settings: in vivo
[17] = Oral bioavailability in rat at 5 mg/kg; format: ADME, organism-based; settings: in vivo
[18] = Volume of distribution at steady state in rat at 1 mg/kg, iv; format: ADME, organism-based; parameters: dose 1 mg/kg, route intravenous; settings: in vivo, read-out: Vdss
[19] = AUC (0 to 24 hrs) in rat at 1 mg/kg, iv; format: ADME, organism-based; parameters: time < 24 hr, dose 1 mg/kg, route intravenous; settings: plasma
[20] = AUC (0 to 24 hrs) in dog at 5 mg/kg, po; format: ADME, organism-based, Canis lupus familiaris; parameters: time < 24 hr, dose 5 mg/kg, route oral; settings: plasma
[21] = Clearance in dog at 1 mg/kg, iv; format: ADME, organism-based, Canis lupus familiaris; parameters: dose 1 mg/kg, route intravenous; settings: in vivo
[22] = Apparent permeability in RRCK cells at pH 6.5; format: ADME, cell-based, Canis lupus familiaris, MDCKII-LE; settings: dog, MDCK
[23] = target: T4, OATP1B3 (Homo sapiens, UniProt Q9NPD5); test: Activity at OATP1B3 (unknown origin) transfected in HEK cells assessed as transporter-mediated cellular uptake relative to mock-transfected HEK cells; format: ADME, cell-based; settings: HEK293 cells transfected with OATP1B3, read-out: FC
T4 sequence (Q9NPD5 whole entry): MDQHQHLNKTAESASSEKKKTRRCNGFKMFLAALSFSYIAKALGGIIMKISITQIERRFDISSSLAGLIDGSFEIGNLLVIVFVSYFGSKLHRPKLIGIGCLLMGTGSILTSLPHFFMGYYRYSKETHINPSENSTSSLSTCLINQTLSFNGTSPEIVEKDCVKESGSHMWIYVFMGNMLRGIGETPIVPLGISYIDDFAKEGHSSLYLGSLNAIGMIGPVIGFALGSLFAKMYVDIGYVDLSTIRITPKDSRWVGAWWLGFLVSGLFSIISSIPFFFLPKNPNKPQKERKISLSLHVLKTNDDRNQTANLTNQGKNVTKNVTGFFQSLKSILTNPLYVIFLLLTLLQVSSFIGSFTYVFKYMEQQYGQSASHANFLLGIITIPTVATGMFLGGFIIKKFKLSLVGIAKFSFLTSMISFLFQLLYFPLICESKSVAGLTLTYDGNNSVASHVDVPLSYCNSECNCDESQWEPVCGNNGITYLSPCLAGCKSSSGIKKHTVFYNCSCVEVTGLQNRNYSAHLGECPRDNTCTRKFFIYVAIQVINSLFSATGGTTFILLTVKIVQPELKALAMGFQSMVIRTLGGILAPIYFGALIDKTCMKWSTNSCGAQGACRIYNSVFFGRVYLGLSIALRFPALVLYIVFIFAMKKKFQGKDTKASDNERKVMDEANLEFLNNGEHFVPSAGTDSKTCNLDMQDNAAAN

[24] = Half life in rat at 1 mg/kg, iv; format: ADME, organism-based; parameters: dose 1 mg/kg, route intravenous; settings: in vivo
[25] = Oral bioavailability in dog at 5 mg/kg; format: ADME, organism-based, Canis lupus familiaris; settings: in vivo
[26] = target: T5, Hexokinase-4 (Rattus norvegicus, UniProt P17712); test: Activation of glucokinase in rat INS-1 cells assessed as glucose-stimulated insulin secretion; format: cell-based, INS1
T5 sequence (P17712 whole entry): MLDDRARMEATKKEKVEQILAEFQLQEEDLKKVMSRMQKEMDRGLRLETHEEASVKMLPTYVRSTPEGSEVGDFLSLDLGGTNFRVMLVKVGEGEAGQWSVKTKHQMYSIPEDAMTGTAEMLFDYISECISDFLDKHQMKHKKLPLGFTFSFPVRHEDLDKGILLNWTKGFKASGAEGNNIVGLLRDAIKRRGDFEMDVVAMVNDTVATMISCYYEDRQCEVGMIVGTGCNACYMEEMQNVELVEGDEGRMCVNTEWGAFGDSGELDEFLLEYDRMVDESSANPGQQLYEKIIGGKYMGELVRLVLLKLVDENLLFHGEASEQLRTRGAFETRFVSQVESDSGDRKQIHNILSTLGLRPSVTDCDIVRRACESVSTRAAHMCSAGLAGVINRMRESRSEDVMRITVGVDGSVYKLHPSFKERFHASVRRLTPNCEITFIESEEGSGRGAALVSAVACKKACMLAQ

[27] = target: T5, Hexokinase-4; test: Activation of glucokinase in Wistar rat hepatocytes assessed as nuclear to cytosolic translocation of protein by immunofluorescence assay; format: cell-based, Hepatocyte
[28] = AUC (0 to 24 hrs) in rat at 5 mg/kg, po; format: ADME, organism-based; parameters: time < 24 hr, dose 5 mg/kg, route oral; settings: plasma
[29] = AUC (0 to 24 hrs) in dog at 1 mg/kg, iv; format: ADME, organism-based, Canis lupus familiaris; parameters: time < 24 hr, dose 1 mg/kg, route intravenous; settings: plasma
[30] = Cmax in rat at 1 mg/kg, iv; format: ADME, organism-based; parameters: dose 1 mg/kg, route intravenous; settings: in vivo
[31] = system: Rattus norvegicus; test: Antihyperglycemic activity in rat assessed as liver to plasma AUC ratio at 5 mg/kg, iv administered as bolus after 1 to 6 hrs; format: functional
[32] = Clearance in rat at 1 mg/kg, iv; format: ADME, organism-based; parameters: dose 1 mg/kg, route intravenous; settings: in vivo
[33] = Apparent permeability in RRCK cells at pH 5.5; format: ADME, cell-based, Canis lupus familiaris, MDCKII-LE; settings: dog, MDCK
[34] = Cmax in rat at 5 mg/kg, po; format: ADME, organism-based; parameters: dose 5 mg/kg, route oral; settings: in vivo
[35] = Cmax in dog at 1 mg/kg, iv; format: ADME, organism-based, Canis lupus familiaris; parameters: dose 1 mg/kg, route intravenous; settings: in vivo
[36] = Volume of distribution at steady state in dog at 1 mg/kg, iv; format: ADME, organism-based, Canis lupus familiaris; parameters: dose 1 mg/kg, route intravenous; settings: in vivo, read-out: Vdss
[37] = Cmax in dog at 5 mg/kg, po; format: ADME, organism-based, Canis lupus familiaris; parameters: dose 5 mg/kg, route oral; settings: in vivo
[38] = Intrinsic clearance in human liver microsomes; format: ADME; settings: read-out: CLH

O=C([O-])c1ccc(NC(=O)[C@H](CC2CCCC2)n2cnc(S(=O)(=O)C3CCC3)c2)nc1.[Na+]
solubility [1]: 41000 µM

CC(C)c1nc(N(C)S(C)(=O)=O)nc(-c2ccc(F)cc2)c1/C=C/[C@@H](O)C[C@@H](O)CC(=O)O [ROSUVASTATIN]
Drug uptake [2]: 91% | Drug uptake [3]: 158 µL/min/mg | Drug uptake [4]: 5.8 µL/min/mg

O=C(O)c1ccc(NC(=O)[C@H](CC2CCCCC2)n2cnc(S(=O)(=O)C3CCC3)c2)nc1
logD [5]: 0.15 | pEC50 [6]: 6.64 | Papp [7]: 0.3 ×10⁻⁶ cm/s | solubility kinetic [8]: 198 µM (≈ 91.2 µg/mL) | fold change (FC) [9]: 0.08 | fold change (FC) [10]: 1.25

O=C(O)c1ccc(NC(=O)[C@H](CC2CCCC2)n2cnc(C(F)(F)F)c2)nc1 [PF-04991532]
logD [5]: 0.68 | Activity [11]: 17.7%

O=C(O)c1ccc(NC(=O)[C@H](CC2CCCC2)n2cnc(S(=O)(=O)C3CCC3)c2)nc1
Papp [12]: 2 ×10⁻⁶ cm/s | Activity [13]: 15.4% | Ratio AUC [14]: 3.5 | logD [5]: -0.1 | uptake ratio [15]: 4.1 | Drug uptake [2]: 55% | half-life [16]: 42 min | bioavailability [17]: < 1% | Vd [18]: 0.8 L/kg | AUC(0-t) at 24 h [19]: 176 ng·h/mL | AUC(0-t) at 24 h [20]: 36.6 ng·h/mL | clearance [21]: 18 mL/min/kg | Papp [22]: 1.3 ×10⁻⁶ cm/s | uptake ratio [23]: 2.3 | half-life [24]: 12 min | bioavailability [25]: < 5% | pEC50 [26]: 3.76 | pIC50 [27]: 5.77 | AUC(0-t) at 24 h [28]: 3.4 ng·h/mL | pEC50 [6]: 6.70 | AUC(0-t) at 24 h [29]: 932 ng·h/mL | Papp [7]: 0.5 ×10⁻⁶ cm/s | Cmax [30]: 1400 ng/mL | Ratio AUC [31]: 2 | clearance [32]: 96 mL/min/kg | Papp [33]: 1.4 ×10⁻⁶ cm/s | solubility kinetic [8]: 428 µM (≈ 191 µg/mL) | Drug uptake [3]: 22 µL/min/mg | Cmax [34]: 2.5 ng/mL | Drug uptake [4]: 12 µL/min/mg | Cmax [35]: 6350 ng/mL | Vd [36]: 0.4 L/kg | Cmax [37]: 12.8 ng/mL | CLint scaled [38]: < 8 mL/min/kg
